In ChEMBL document CHEMBL3351473, “Synthesis and biological evaluation of α-1-C-4'-arylbutyl-L-arabinoiminofuranoses, a new class of α-glucosidase inhibitors” (Bioorg Med Chem Lett, 2014):

How the values were obtained:
[1] = Inhibition of Wistar rat intestinal maltase assessed as inhibition of D-glucose release after 30 mins by spectrophotometry
[2] = target: T1, Sucrase-isomaltase, intestinal (Rattus norvegicus, UniProt P23739); experiment: Inhibition of Wistar rat intestinal isomaltase assessed as inhibition of D-glucose release after 30 mins by spectrophotometry
[3] = target: T1, Sucrase-isomaltase, intestinal; experiment: Inhibition of Wistar rat intestinal sucrase assessed as inhibition of D-glucose release after 30 mins by spectrophotometry

T1 sequence (P23739 1-1013 limits assumed): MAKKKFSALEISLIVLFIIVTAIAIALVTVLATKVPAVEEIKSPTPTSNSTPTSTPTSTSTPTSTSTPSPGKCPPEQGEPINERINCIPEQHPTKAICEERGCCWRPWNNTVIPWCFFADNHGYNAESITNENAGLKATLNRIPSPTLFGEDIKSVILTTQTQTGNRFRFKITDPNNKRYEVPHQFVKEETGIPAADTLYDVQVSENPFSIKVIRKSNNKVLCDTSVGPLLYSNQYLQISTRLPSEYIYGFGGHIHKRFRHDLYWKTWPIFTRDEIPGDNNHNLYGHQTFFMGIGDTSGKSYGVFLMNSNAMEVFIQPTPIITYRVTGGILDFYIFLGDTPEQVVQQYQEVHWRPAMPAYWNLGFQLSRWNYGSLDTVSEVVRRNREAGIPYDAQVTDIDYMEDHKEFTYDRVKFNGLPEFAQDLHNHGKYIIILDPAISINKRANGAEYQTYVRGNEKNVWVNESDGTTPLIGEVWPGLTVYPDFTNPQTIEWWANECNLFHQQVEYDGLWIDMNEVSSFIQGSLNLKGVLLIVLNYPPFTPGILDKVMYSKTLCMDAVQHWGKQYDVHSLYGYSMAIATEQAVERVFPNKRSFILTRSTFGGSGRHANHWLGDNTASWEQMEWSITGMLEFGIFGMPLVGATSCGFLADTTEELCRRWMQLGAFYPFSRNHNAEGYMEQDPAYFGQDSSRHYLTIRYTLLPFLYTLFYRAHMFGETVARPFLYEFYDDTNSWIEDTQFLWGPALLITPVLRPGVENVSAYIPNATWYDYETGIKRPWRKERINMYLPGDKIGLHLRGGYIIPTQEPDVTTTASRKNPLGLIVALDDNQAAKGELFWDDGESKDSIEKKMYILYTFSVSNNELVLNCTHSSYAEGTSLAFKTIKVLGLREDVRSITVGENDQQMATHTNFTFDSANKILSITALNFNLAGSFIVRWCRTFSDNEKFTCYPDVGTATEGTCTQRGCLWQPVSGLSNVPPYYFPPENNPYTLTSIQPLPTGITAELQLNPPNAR
T1 sequence (P23739 1014-1841 limits assumed): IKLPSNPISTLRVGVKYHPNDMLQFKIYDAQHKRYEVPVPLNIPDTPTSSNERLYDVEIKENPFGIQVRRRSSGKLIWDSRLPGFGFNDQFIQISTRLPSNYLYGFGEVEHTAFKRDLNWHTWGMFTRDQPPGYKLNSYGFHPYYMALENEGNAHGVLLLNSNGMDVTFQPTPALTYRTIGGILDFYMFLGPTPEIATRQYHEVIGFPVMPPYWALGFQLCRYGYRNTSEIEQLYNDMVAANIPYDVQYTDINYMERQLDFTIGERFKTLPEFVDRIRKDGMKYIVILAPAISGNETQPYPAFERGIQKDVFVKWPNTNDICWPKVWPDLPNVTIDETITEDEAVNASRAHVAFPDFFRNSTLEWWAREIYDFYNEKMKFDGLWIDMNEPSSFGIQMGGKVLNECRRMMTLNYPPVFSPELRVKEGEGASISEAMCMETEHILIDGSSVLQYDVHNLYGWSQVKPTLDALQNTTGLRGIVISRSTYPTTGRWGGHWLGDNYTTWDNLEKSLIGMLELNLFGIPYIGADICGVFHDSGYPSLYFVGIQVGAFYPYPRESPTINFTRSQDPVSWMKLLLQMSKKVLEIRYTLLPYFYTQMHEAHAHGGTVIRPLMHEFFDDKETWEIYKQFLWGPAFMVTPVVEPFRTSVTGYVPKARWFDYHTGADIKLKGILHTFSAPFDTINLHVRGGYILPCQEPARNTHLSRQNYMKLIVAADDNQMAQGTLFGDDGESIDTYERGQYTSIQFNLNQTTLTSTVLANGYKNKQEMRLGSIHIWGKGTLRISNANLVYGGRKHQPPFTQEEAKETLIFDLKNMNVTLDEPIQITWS

| Compound | IC50 [1] [µM] | IC50 [2] [µM] | IC50 [3] [µM] |
| --- | --- | --- | --- |
| OC[C@@H]1N[C@@H](CCCCc2ccccc2)[C@H](O)[C@H]1O | 0.22 |  |  |
| COc1ccc(CCCC[C@@H]2N[C@@H](CO)[C@H](O)[C@H]2O)cc1 |  | 1.8 | 0.13 |
| OC[C@@H]1N[C@@H](CCCCc2cc(F)cc(F)c2)[C@H](O)[C@H]1O |  | 0.22 | 0.026 |

More lines, now with the values ahead:

| IC50 [1] [µM] | IC50 [2] [µM] | IC50 [3] [µM] | Compound |
| --- | --- | --- | --- |
|  | 0.63 | 0.045 | Cc1ccc(CCCC[C@@H]2N[C@@H](CO)[C@H](O)[C@H]2O)cc1 |
|  | 6 | 0.11 | OC[C@@H]1N[C@@H](CCCCc2ccc(O)cc2)[C@H](O)[C@H]1O |
|  | 3 | 0.17 | OC[C@@H]1N[C@@H](CCCCc2ccc(F)cc2)[C@H](O)[C@H]1O |
